ChEMBL document CHEMBL5055633, “Amphipathic Barbiturates as Mimics of Antimicrobial Peptides and the Marine Natural Products Eusynstyelamides with Activity against Multi-resistant Clinical Isolates” (J Med Chem, 2021)

Tests used:
[1] = tested on: HepG2; assay: Cytotoxicity against human HepG2 cells assessed as reduction in cell viability incubated for 24 hrs by colorimetric tetrazolium assay; type: functional, cell-based; conditions: HepG2, 24 h
[2] = Hemolytic activity in human erythrocytes incubated for 1 hr by microplate reader; type: functional, cell-based; conditions: erythrocyte
[3] = tested on: Pseudomonas aeruginosa; assay: Antimicrobial activity against Pseudomonas aeruginosa PAO1 assessed as reduction in bacterial growth incubated for 48 hrs by microdilution susceptibility test; type: functional
[4] = tested on: Escherichia coli; assay: Antimicrobial activity against Escherichia coli ATCC 25922 assessed as reduction in bacterial growth incubated for 48 hrs by microdilution susceptibility test; type: functional
[5] = tested on: Corynebacterium glutamicum; assay: Antimicrobial activity against Corynebacterium glutamicum ATCC 13032 assessed as reduction in bacterial growth incubated for 48 hrs by microdilution susceptibility test; type: functional
[6] = tested on: Staphylococcus aureus; assay: Antimicrobial activity against Staphylococcus aureus ATCC 9144 assessed as reduction in bacterial growth incubated for 48 hrs by microdilution susceptibility test; type: functional
[7] = tested on: MRC5; assay: Cytotoxicity against human MRC5 cells assessed as reduction in cell viability incubated for 24 hrs by colorimetric tetrazolium assay; type: functional, cell-based; conditions: MRC5, 24 h
[8] = tested on: Staphylococcus aureus; assay: Antimicrobial activity against extended spectrum-lactamase-carbapenemas producing Staphylococcus aureus N315 assessed as reduction in bacterial growth incubated for 48 hrs by microdilution method; type: functional
[9] = tested on: Staphylococcus aureus; assay: Antimicrobial activity against extended spectrum-lactamase-carbapenemas producing Staphylococcus aureus NCTC 10442 assessed as reduction in bacterial growth incubated for 48 hrs by microdilution method; type: functional
[10] = tested on: Staphylococcus aureus; assay: Antimicrobial activity against extended spectrum-lactamase-carbapenemas producing Staphylococcus aureus strain 85/2082 assessed as reduction in bacterial growth incubated for 48 hrs by microdilution method; type: functional
[11] = tested on: Staphylococcus aureus; assay: Antimicrobial activity against extended spectrum-lactamase-carbapenemas producing Staphylococcus aureus strain WIS assessed as reduction in bacterial growth incubated for 48 hrs by microdilution method; type: functional
[12] = tested on: Staphylococcus aureus; assay: Antimicrobial activity against extended spectrum-lactamase-carbapenemas producing Staphylococcus aureus strain IHT 99040 assessed as reduction in bacterial growth incubated for 48 hrs by microdilution method; type: functional
[13] = tested on: Enterococcus faecium; assay: Antimicrobial activity against extended spectrum-lactamase-carbapenemas producing Enterococcus faecium strain 50673722 assessed as reduction in bacterial growth incubated for 48 hrs by microdilution method; type: functional
[14] = tested on: Enterococcus faecium; assay: Antimicrobial activity against extended spectrum-lactamase-carbapenemas producing Enterococcus faecium strain 50901530 assessed as reduction in bacterial growth incubated for 48 hrs by microdilution method; type: functional
[15] = tested on: Enterococcus faecium; assay: Antimicrobial activity against extended spectrum-lactamase-carbapenemas producing Enterococcus faecium strain K36-18 assessed as reduction in bacterial growth incubated for 48 hrs by microdilution method; type: functional
[16] = tested on: Enterococcus faecium; assay: Antimicrobial activity against extended spectrum-lactamase-carbapenemas producing Enterococcus faecium strain 50758899 assessed as reduction in bacterial growth incubated for 48 hrs by microdilution method; type: functional
[17] = tested on: Enterococcus faecium; assay: Antimicrobial activity against extended spectrum-lactamase-carbapenemas producing Enterococcus faecium strain TUH.50-22 assessed as reduction in bacterial growth incubated for 48 hrs by microdilution method; type: functional
[18] = tested on: Escherichia coli; assay: Antimicrobial activity against oxacillinase-producing Escherichia coli 50579417 assessed as reduction in bacterial growth incubated for 48 hrs by microdilution method; type: functional
[19] = tested on: Escherichia coli; assay: Antimicrobial activity against verona integron-encoded metallo-beta-lactamase-29-producing Escherichia coli 50639799 assessed as reduction in bacterial growth incubated for 48 hrs by microdilution method; type: functional
[20] = tested on: Escherichia coli; assay: Antimicrobial activity against New Delhi metallo-beta lactamase-1 producing Escherichia coli 50676002 assessed as reduction in bacterial growth incubated for 48 hrs by microdilution method; type: functional
[21] = tested on: Escherichia coli; assay: Antimicrobial activity against New Delhi metallo-beta lactamase-1 producing Escherichia coli 50739822 assessed as reduction in bacterial growth incubated for 48 hrs by microdilution method; type: functional
[22] = tested on: Escherichia coli; assay: Antimicrobial activity against imipenem-type carbapenemase-26 producing Escherichia coli 50857972 assessed as reduction in bacterial growth incubated for 48 hrs by microdilution method; type: functional
[23] = tested on: Pseudomonas aeruginosa; assay: Antimicrobial activity against verona integron-encoded metallo-beta-lactamase-2 producing Pseudomonas aeruginosa K34-7 assessed as reduction in bacterial growth incubated for 48 hrs by microdilution method; type: functional
[24] = tested on: Pseudomonas aeruginosa; assay: Antimicrobial activity against verona integron-encoded metallo-beta-lactamase-4 producing Pseudomonas aeruginosa K34-73 assessed as reduction in bacterial growth incubated for 48 hrs by microdilution method; type: functional
[25] = tested on: Pseudomonas aeruginosa; assay: Antimicrobial activity against imipenem-type carbapenemase-14 producing Pseudomonas aeruginosa K44-24 assessed as reduction in bacterial growth incubated for 48 hrs by microdilution method; type: functional
[26] = tested on: Pseudomonas aeruginosa; assay: Antimicrobial activity against New Delhi metallo-beta lactamase-1 producing Pseudomonas aeruginosa 50692172 assessed as reduction in bacterial growth incubated for 48 hrs by microdilution method; type: functional
[27] = tested on: Pseudomonas aeruginosa; assay: Antimicrobial activity against verona integron-encoded metallo-beta-lactamase producing Pseudomonas aeruginosa 50692520 assessed as reduction in bacterial growth incubated for 48 hrs by microdilution method; type: functional
[28] = Antimicrobial activity against carbapenemase producing Klebsiella pneumoniae K47-25 assessed as reduction in bacterial growth incubated for 48 hrs by microdilution method; type: functional
[29] = Antimicrobial activity against New Delhi metallo-beta lactamase-1 Klebsiella pneumoniae K66-45 assessed as reduction in bacterial growth incubated for 48 hrs by microdilution method; type: functional
[30] = Antimicrobial activity against New Delhi metallo-beta lactamase-1 and oxacillinase -181 producing Klebsiella pneumoniae 50531633 assessed as reduction in bacterial growth incubated for 48 hrs by microdilution method; type: functional
[31] = Antimicrobial activity against oxacillinase-245 producing Klebsiella pneumoniae 50625602 assessed as reduction in bacterial growth incubated for 48 hrs by microdilution method; type: functional
[32] = Antimicrobial activity against verona integron-encoded metallo-beta-lactamase -1 producing Klebsiella pneumoniae 50667959 assessed as reduction in bacterial growth incubated for 48 hrs by microdilution method; type: functional
[33] = tested on: Acinetobacter baumannii; assay: Antimicrobial activity against oxacillinase-58 producing Acinetobacter baumannii K12-21 assessed as reduction in bacterial growth incubated for 48 hrs by microdilution method; type: functional
[34] = tested on: Acinetobacter baumannii; assay: Antimicrobial activity against oxacillinase-23 producing Acinetobacter baumannii K44-35 assessed as reduction in bacterial growth incubated for 48 hrs by microdilution method; type: functional
[35] = tested on: Acinetobacter baumannii; assay: Antimicrobial activity against oxacillinase-23 producing Acinetobacter baumannii K47-42 assessed as reduction in bacterial growth incubated for 48 hrs by microdilution method; type: functional
[36] = tested on: Acinetobacter baumannii; assay: Antimicrobial activity against oxacillinase-24 producing Acinetobacter baumannii K55-13 assessed as reduction in bacterial growth incubated for 48 hrs by microdilution method; type: functional
[37] = tested on: Acinetobacter baumannii; assay: Antimicrobial activity against oxacillinase-23 producing Acinetobacter baumannii K63-58 assessed as reduction in bacterial growth incubated for 48 hrs by microdilution method; type: functional

Compound: NCCCCN1C(=O)N(CCCCN)C(=O)C(Cc2ccc(F)c3ccccc23)(Cc2ccc(F)c3ccccc23)C1=O.O=C(O)C(F)(F)F.O=C(O)C(F)(F)F
- IC50 [1]: 5 µg/mL
- EC50 [2]: 160 µg/mL
- MIC [3]: 8 µg/mL
- MIC [4]: 16 µg/mL
- MIC [5]: 1 µg/mL
- MIC [6]: 4 µg/mL
- IC50 [7]: 2 µg/mL
- MIC [8]: 8 µg/mL
- MIC [9]: 8 µg/mL
- MIC [10]: 4 µg/mL
- MIC [11]: 8 µg/mL
- MIC [12]: 8 µg/mL
- MIC [13]: 8 µg/mL
- MIC [14]: 4 µg/mL
- MIC [15]: 8 µg/mL
- MIC [16]: 8 µg/mL
- MIC [17]: 4 µg/mL
- MIC [18]: 16 µg/mL
- MIC [19]: 16 µg/mL
- MIC [20]: 16 µg/mL
- MIC [21]: 16 µg/mL
- MIC [22]: 16 µg/mL
- MIC [23]: 32 µg/mL
- MIC [24]: 32 µg/mL
- MIC [25]: 32 µg/mL
- MIC [26]: 16 µg/mL
- MIC [27]: 16 µg/mL
- MIC [28]: > 32 µg/mL
- MIC [29]: 32 µg/mL
- MIC [30]: 16 µg/mL
- MIC [31]: 32 µg/mL
- MIC [32]: 32 µg/mL
- MIC [33]: 32 µg/mL
- MIC [34]: 32 µg/mL
- MIC [35]: 32 µg/mL
- MIC [36]: 32 µg/mL
- MIC [37]: 16 µg/mL

Compound: N=C(N)NCCCCN1C(=O)N(CCCCNC(=N)N)C(=O)C(Cc2ccc(C(F)(F)F)cc2)(Cc2ccc(C(F)(F)F)cc2)C1=O.O=C(O)C(F)(F)F.O=C(O)C(F)(F)F
- IC50 [1]: 104 µg/mL
- EC50 [2]: > 449 µg/mL
- MIC [3]: 64 µg/mL
- MIC [4]: 8 µg/mL
- MIC [5]: 0.25 µg/mL
- MIC [6]: 2 µg/mL
- IC50 [7]: 74 µg/mL
- MIC [8]: 4 µg/mL
- MIC [9]: 4 µg/mL
- MIC [10]: 4 µg/mL
- MIC [11]: 4 µg/mL
- MIC [12]: 8 µg/mL
- MIC [13]: 32 µg/mL
- MIC [14]: 8 µg/mL
- MIC [15]: 32 µg/mL
- MIC [16]: > 32 µg/mL
- MIC [17]: 32 µg/mL
- MIC [18]: 32 µg/mL
- MIC [19]: 16 µg/mL
- MIC [20]: 32 µg/mL
- MIC [21]: 32 µg/mL
- MIC [22]: 16 µg/mL
- MIC [23]: > 32 µg/mL
- MIC [24]: > 32 µg/mL
- MIC [25]: > 32 µg/mL
- MIC [26]: > 32 µg/mL
- MIC [27]: > 32 µg/mL
- MIC [28]: > 32 µg/mL
- MIC [29]: > 32 µg/mL
- MIC [30]: > 32 µg/mL
- MIC [31]: > 32 µg/mL
- MIC [32]: > 32 µg/mL
- MIC [33]: > 32 µg/mL
- MIC [34]: > 32 µg/mL
- MIC [35]: > 32 µg/mL
- MIC [36]: > 32 µg/mL
- MIC [37]: > 32 µg/mL

Compound: CC(C)(C)c1ccc(CC2(Cc3ccc(C(C)(C)C)cc3)C(=O)N(CCCCN)C(=O)N(CCCCN)C2=O)cc1.O=C(O)C(F)(F)F.O=C(O)C(F)(F)F
- IC50 [1]: 3 µg/mL
- EC50 [2]: 145 µg/mL
- MIC [3]: 8 µg/mL
- MIC [4]: 4 µg/mL
- MIC [5]: 1 µg/mL
- MIC [6]: 4 µg/mL
- IC50 [7]: 1 µg/mL
- MIC [8]: 8 µg/mL
- MIC [9]: 8 µg/mL
- MIC [10]: 8 µg/mL
- MIC [11]: 8 µg/mL
- MIC [12]: 8 µg/mL
- MIC [13]: 8 µg/mL
- MIC [14]: 4 µg/mL
- MIC [15]: 8 µg/mL
- MIC [16]: 8 µg/mL
- MIC [17]: 8 µg/mL
- MIC [18]: 8 µg/mL
- MIC [19]: 8 µg/mL
- MIC [20]: 4 µg/mL
- MIC [21]: 8 µg/mL
- MIC [22]: 4 µg/mL
- MIC [23]: > 32 µg/mL
- MIC [24]: > 32 µg/mL
- MIC [25]: > 32 µg/mL
- MIC [26]: > 32 µg/mL
- MIC [27]: > 32 µg/mL
- MIC [28]: > 32 µg/mL
- MIC [29]: 32 µg/mL
- MIC [30]: 16 µg/mL
- MIC [31]: 16 µg/mL
- MIC [32]: 32 µg/mL
- MIC [33]: 16 µg/mL
- MIC [34]: 32 µg/mL
- MIC [35]: 16 µg/mL
- MIC [36]: 16 µg/mL
- MIC [37]: 16 µg/mL
